Peptide text beside a SMILES is read from it.
Columns and labels:
[1] = test system: MDR isolates of P. aeruginosa, E. coli and K. pneumoniae; experiment: Minimum bactericidal concentration (MBC); format: cell-based; settings: all MDR isolates tested
Description: (§1) The minimum inhibitory concentration (MIC) of synthetic peptides was determined using the broth microdilution method in cation-adjusted Mueller-Hinton broth (MHB2 – Sigma-Aldrich, St. Louis, MO, United States), according to the recommendations of the Clinical and Laboratory Standards Institute ([CLSI, 2012]), against four reference strains, namely, P. aeruginosa ATCC 27853, E. coli ATCC 25922, S. aureus ATCC 25923 and Enterococcus faecalis ATCC 29212. MIC values of peptide 3.1-PP4 were also determined against MDR clinical isolates of P. aeruginosa (PA002, PA004, Pa3, Pa4), E. coli (Ec1, Ec2, EC001, EC002, EC003) and K. pneumoniae (KP004, KP007, KP010). The peptides were tested in the concentration range of 1–1024 μg/mL. The minimum bactericidal concentration (MBC) was determined as previously reported ([Bessa et al., 2018]).
In view of the above results, peptide conjugate 3.1-PP4 was selected for further investigation of its activity against MDR isolates of three Gram-negative bacterial species, namely, P. aeruginosa (four isolates), E. coli (five isolates), and K. pneumoniae (four isolates), whose antimicrobial resistance patterns are provided in the Supplementary Table S1. […]

[2] = test system: E. faecalis ATCC 29212; experiment: MIC, broth microdilution (CLSI), ATCC reference strain; format: cell-based, Enterococcus faecalis
Description: as §1, with “2018]). According to CLSI guidelines for antimicrobial susceptibility testing, MIC values were determined for all peptides against ATCC reference strains of two Gram-positive (S. aureus ATCC 25923 and E. faecalis ATCC 29212), and two Gram-negative (P. aeruginosa ATCC 27853 and E. coli ATCC 25922) bacterial species, and are shown in Table 2.” for “2018]).”

[3] = test system: biofilms of PA004, KP007, and KP010; experiment: CLSM imaging of biofilms after Live/Dead staining; format: cell-based, P. aeruginosa and K. pneumoniae; settings: qualitative
Description: For confocal laser scanning microscopy (CLSM) imaging, 24 h biofilms of PA004, KP007, and KP010 were formed in μ-Dish (35 mm, high), ibidi Polymer Coverslips (ibidi GmbH, Planegg-Martinsried, Germany) as previously described by [Bessa et al. (2018)]. Biofilms were non-treated – controls (only medium was used) or treated with 3.1-PP4 at a concentration of 20 × MIC. After 24 h, all biofilms were stained using the LIVE/DEAD^TM BacLight^TM bacterial viability kit (Molecular Probes, Thermo Fisher Scientific, MA, United States). Biofilms were visualized under a laser scanning confocal system Leica TCS SP5 II (Leica Microsystems, Germany), equipped with an inverted (i) microscope Leica DMI6000-CS, using a HC PL APO CS 63x/1.30 Glycerine 21°C objective and the lasers Diode 405 nm and DPSS561 561 nm, and (ii) the LAS AF software.
To gain further insight into the peptide’s effects on the bacterial biofilms, a Live/Dead staining assay using CLSM was carried out, where untreated and peptide-treated biofilms delivered the images depicted in Figure 2. […] Noteworthy, only bacterial cells, not biofilm matrix, are stained when the Live/Dead staining is used, which means that only cells within the biofilm are observed.

[4] = test system: preformed biofilm of MDR P. aeruginosa PA004; experiment: Biofilm metabolic activity (MTT); format: cell-based, Pseudomonas aeruginosa; settings: isolate PA004, 24 h preformed biofilm, 20 × MIC, 24 h at 37°C, absorbance 570 nm
Description: The respective control biofilms were equally formed but in absence of the peptide (only TSB medium was used). Afterward, the bacterial metabolic activity of biofilms was quantified after adding 3-(4,5-dimethylthiazole-2-yl)-2,5-diphenyl tetrazolium bromide (MTT, 0.5 mg/mL – Sigma-Aldrich, St. Louis, MO, United States) for 3 h at 37°C in the dark. DMSO was used to dissolve the formazan crystals formed and the absorbance at 570 nm was measured. Two independent experiments were performed in four replicates.
The influence of the peptide on the metabolic activity of preformed biofilms of one P. aeruginosa (PA004) and three K. pneumoniae (KP004, KP007, and KP010) isolates was also assessed, through a standard MTT assay.

- MIC ([2]; ATCC 29212): 33 µM
- MIC ([2]; E. faecalis ATCC 29212, broth microdilution in MHB2, CLSI, range tested 1–1024 μg/mL): 64 µg/mL
Structure (SMILES): CC(C)C[C@H](NC(=O)[C@H](Cc1c[nH]c2ccccc12)NC(=O)[C@H](CCCCN)NC(=O)[C@H](CC(C)C)NC(=O)[C@H](CC(C)C)NC(=O)[C@H](CCCCN)NC(=O)[C@@H](N)CCCCN)C(=O)N[C@@H](CC(C)C)C(=O)N[C@@H](CCCCN)C(=O)N[C@@H](CC(C)C)C(=O)N[C@@H](CC(C)C)C(=O)N[C@@H](CCCCN)C(=O)N[C@H](C(=O)N[C@H](C(=O)N[C@@H](CCCCN)C(=O)N[C@@H](CO)C(N)=O)[C@@H](C)O)[C@@H](C)O [Peptide 3.1-PP4] (H-KKLLKWLLKLLKTTKS-NH2; N-terminus assumed)
- minimal bactericidal concentrations (MBC) [1]: match the MIC in all cases
- ratio of red- to green-stained bacterial cells (Live/Dead, CLSM) ([3]; 24 h biofilms of PA004, KP007, KP010 treated 24 h at 20 × MIC, vs untreated): consistently higher in peptide-treated
- impact on biofilm (Live/Dead, CLSM) ([3]; isolate KP010, 24 h biofilm treated 24 h at 20 × MIC): significant biofilm disaggregation
- % reduction of metabolic activity in peptide-treated biofilms [4]: 8.3%

Reference: PMC6710338, “Turning a Collagenesis-Inducing Peptide Into a Potent Antibacterial and Antibiofilm Agent Against Multidrug-Resistant Gram-Negative Bacteria” (Frontiers in Microbiology, 2019)
